{
  "source": "patent US7078398B2",
  "about": "“Compositions and methods for treating or preventing convulsions or seizures” (Vela Pharamaceuticals, Inc., priority 2001, dated 2006)",
  "key": {"[1]": {"system": "picrotoxin convulsions in Tuck No. 1 mice", "conditions": "cited from earlier work"}, "[2]": {"system": "convulsions induced by tryptamine in mice", "conditions": "Table 6 of Ito; cited from earlier work"}, "[3]": {"system": "pentylenetetrazole convulsions in Tuck No. 1 mice", "conditions": "cited from earlier work"}, "[4]": {"system": "picrotoxin-induced seizures in male NSA mice", "test": "animal or person", "assay_type": "in vivo", "conditions": "for anti-convulsant activity against picrotoxin-induced seizures (conclusion): NSA mice; for ED50: Mus musculus; for ED50 / ED50 (95% confidence limit): i.p. 15 minutes prior to picrotoxin 5 mg/kg s.c.", "experimental": "Anticonvulsant activity against picrotoxin-induced seizures is considered evidence of clinical antiepileptic potential and reason for further evaluation of a test compound's anticonvulsant profile (Swinyard, E. A. et al., General principles: experimental detection, quantification and evaluation of anticonvulsants. In: Antiepileptic Drugs, D. M. Woodbury et al., eds. Raven Press, New York (1990) pp. 111–126).\nPicrotoxin (5 mg/kg, Sigma Chem. Co., St. Louis, Mo., USA) was dissolved in saline and administered subcutaneously to induce seizures. In addition, picrotoxin alone was administered to seven animals as a control. All test drugs were dissolved in dimethylsulfoxide (DMSO).\nAfter picrotoxin injection, mice were placed into a plexiglass cage for 30 minutes of observation. The appearance of seizures was defined as the presence of a single episode of clonic or tonic activity (including myoclonic jerks) during the 30 minute observation period. […] Animals were euthanized immediately after the observation period by CO2 inhalation. The ED50 (the dose of test compound at which half of the animals were protected against picrotoxin-induced seizures) values and their 95% confidence limits were calculated by the method of Litchfield and Wilcoxon (J. Pharmacol. Exp. Ther. 96:99–113 (1949))."}, "[5]": {"system": "convulsions induced by the compound Ro 5-4864 in mice", "conditions": "100 mg/kg; cited from earlier work"}, "[6]": {"conditions": "Example 2, enantiomers of Example 1, 30 minute observation"}, "[7]": {"conditions": "Example 4, enantiomers of Example 3"}},
  "note": "Entries after “also recorded” stand apart in the source; their conditions may differ. Like-named read-outs stand apart in the source and are kept apart here.",
  "data": [
    {"smiles": "CCC1C(C)=NN=C(c2ccc(OC)c(OC)c2)c2cc(OC)c(OC)cc21", "note": "(racemic) [tofisopam, 1-(3,4-dimethoxy-phenyl)-4-methyl-5-ethyl-7,8-dimethoxy-5H-2,3-benzodiazepine]", "values": [
      {"measurement": "number or severity of convulsions", "setting": "[1]; 10–50 mg/kg, 6 mg/kg of picrotoxin", "value": "no affect"},
      {"measurement": "effect in combination with 3 mg/kg picrotoxin", "setting": "[1]; 25–50 mg/kg", "value": "proconvulsant activity"},
      {"measurement": "incidence of convulsions", "setting": "[2]", "value": "no effect"},
      {"measurement": "effect as an anti-convulsant", "setting": "[3]; 10–25 mg/kg, 60 mg/kg of pentylenetetrazole", "value": "no effect"},
      {"measurement": "effect in combination with 30 mg/kg pentylenetetrazole", "setting": "[3]; 25–50 mg/kg", "value": "proconvulsant activity"},
      {"measurement": "anti-convulsant activity against picrotoxin-induced seizures (conclusion)", "setting": "[4]; Example 2", "value": "intrinsic anti-convulsant activity"},
      {"measurement": "anti-convulsant activity (conclusion)", "setting": "[4]; Example 4", "value": "intrinsic anti-convulsant activity"},
      {"measurement": "ED50", "setting": "[4]; read-out: ED50 (95% confidence limit), Example 2, enantiomers of Example 1, 30 minute observation", "value": 37.8, "unit": "mg/kg"},
      {"measurement": "ED50", "setting": "[4]; read-out: ED50 (95% confidence limit), Example 4, enantiomers of Example 3", "value": 51.4, "unit": "mg/kg"},
      {"measurement": "myoclonic jerks in treated mice", "setting": "[5]", "value": "all of the treated mice still experienced myoclonic jerks"},
      {"measurement": "number of mice having convulsions", "setting": "[5]", "value": "reduced the number of mice having convulsions"}
    ]},
    {"smiles": "CC[C@H]1C(C)=NN=C(c2ccc(OC)c(OC)c2)c2cc(OC)c(OC)cc21", "note": "[R-tofisopam]", "values": [
      {"measurement": "anti-convulsant activity against picrotoxin-induced seizures (conclusion)", "setting": "[4]; Example 2", "value": "no anti-convulsant activity"},
      {"measurement": "inhibition of picrotoxin-induced convulsions", "setting": "[4]; Example 2, at either 20 or 50 mg/kg i.p.", "value": "did not inhibit"},
      {"measurement": "ED50 (95% confidence limit)", "setting": "[4]; [6]", "value": "Inactive"},
      {"measurement": "protection against picrotoxin-induced seizures", "setting": "[4]; Example 4, 90 mg/kg", "value": "no further increase in protection"},
      {"measurement": "protection against picrotoxin-induced seizures", "setting": "[4]; Example 4, 128 mg/kg", "value": "no protection"},
      {"measurement": "protection from picrotoxin-induced seizures, all doses tested", "setting": "[4]; Example 4, 32-128 mg/kg", "value": "< 50", "unit": "%"},
      {"measurement": "anticonvulsant activity", "setting": "[4]; Example 4, doses of 32 mg/kg and 64 mg/kg", "value": "exhibits anticonvulsant activity"},
      {"measurement": "ED50 (95% confidence limit)", "setting": "[4]; [7]", "value": "could not be calculated; also recorded: not calculable"}
    ]},
    {"smiles": "CC[C@@H]1C(C)=NN=C(c2ccc(OC)c(OC)c2)c2cc(OC)c(OC)cc21", "note": "[S-tofisopam]", "values": [
      {"measurement": "protection against picrotoxin-induced seizures", "setting": "[4]; Example 2, 40 mg/kg i.p.", "value": "over 60%"},
      {"measurement": "anti-convulsant activity against picrotoxin-induced seizures (conclusion)", "setting": "[4]; Example 2", "value": "intrinsic anti-convulsant activity"},
      {"measurement": "ED50 (95% confidence limit)", "setting": "[4]; [6]", "value": "~35 (28–43) mg/kg"},
      {"measurement": "anti-convulsant activity (conclusion)", "setting": "[4]; Example 4", "value": "intrinsic anti-convulsant activity"},
      {"measurement": "anti-convulsant activity compared with the racemate", "setting": "[4]; Example 4, highly pure S-tofisopam", "value": "significantly greater anti-convulsant activity"},
      {"measurement": "ED50 (95% confidence limit)", "setting": "[4]; [7]", "value": "15.1 (7.6–30.1) mg/kg"}
    ]}
  ]
}
